Where two headings read alike, the source gives them in different places.
Experiments:
K. oxytoca = system: K. oxytoca; set-up: key: previously determined antibiotic resistance (shown with “X”); “IR” = Intrinsically resistant; settings: cited from earlier work
P. aeruginosa = system: P. aeruginosa; set-up: key: previously determined antibiotic resistance (shown with “X”); “IR” = Intrinsically resistant; settings: cited from earlier work
P. mirabilis = system: P. mirabilis; set-up: key: previously determined antibiotic resistance (shown with “X”); “IR” = Intrinsically resistant; settings: cited from earlier work
K. pneumoniae = system: K. pneumoniae; set-up: key: previously determined antibiotic resistance (shown with “X”); “IR” = Intrinsically resistant; settings: cited from earlier work
E. coli = system: E. coli; set-up: key: previously determined antibiotic resistance (shown with “X”); “IR” = Intrinsically resistant; settings: cited from earlier work
[1] = system: K. pneumonaie strain in clinical urine sample BIUR0084; test: Automated MultiPath AST cartridge on clinical urine specimen, Example 8; type: cell-based; settings: clinical urine BIUR0084 (K. pneumoniae), fold growth value of 2; for growth call at all antibiotic concentrations: 2 concentrations; for sensitive/resistant call by MulitPath: 4 h growth at 35° C., matched CLSI BMD
[2] = strain P. aeruginosa ATCC 27853
[3] = strain K. pneumoniae ATCC 13883

## O=C(O)c1cn(C2CC2)c2cc(N3CCNCC3)c(F)cc2c1=O [Ciprofloxacin]
K. oxytoca; strain K. oxytoca CDC0028
  previously determined antibiotic resistance: X
K. oxytoca; strain K. oxytoca CDC0071
  previously determined antibiotic resistance: X
K. oxytoca; strain K. oxytoca CDC0147
  previously determined antibiotic resistance: X
P. aeruginosa; [2]
  previously determined antibiotic resistance: X
P. aeruginosa; strain P. aeruginosa CDC0251
  previously determined antibiotic resistance: X
P. aeruginosa; strain P. aeruginosa CDC0253
  previously determined antibiotic resistance: X
P. aeruginosa; strain P. aeruginosa CDC0259
  previously determined antibiotic resistance: X
P. aeruginosa; strain P. aeruginosa CDC0261
  previously determined antibiotic resistance: X
P. aeruginosa; strain P. aeruginosa CDC0262
  previously determined antibiotic resistance: X
P. mirabilis; strain P. mirabilis ATCC 7002
  previously determined antibiotic resistance: X
P. mirabilis; strain P. mirabilis CDC0029
  previously determined antibiotic resistance: X
P. mirabilis; strain P. mirabilis CDC0059
  previously determined antibiotic resistance: X
P. mirabilis; strain P. mirabilis CDC0155
  previously determined antibiotic resistance: X
P. mirabilis; strain P. mirabilis CDC0156
  previously determined antibiotic resistance: X
P. mirabilis; strain P. mirabilis CDC0159
  previously determined antibiotic resistance: X
K. pneumoniae; [3]
  previously determined antibiotic resistance: X
K. pneumoniae; strain K. pneumoniae CDC0016
  previously determined antibiotic resistance: X
K. pneumoniae; strain K. pneumoniae CDC0034
  previously determined antibiotic resistance: X
K. pneumoniae; strain K. pneumoniae CDC0076
  previously determined antibiotic resistance: X
K. pneumoniae; strain K. pneumoniae CDC0117
  previously determined antibiotic resistance: X
K. pneumoniae; strain K. pneumoniae CDC0126
  previously determined antibiotic resistance: X
E. coli; strain E. coli ATCC 25922
  previously determined antibiotic resistance: X
E. coli; strain E. coli BAA-2452
  previously determined antibiotic resistance: X
E. coli; strain E. coli BAA-2469
  previously determined antibiotic resistance: X
E. coli; strain E. coli BAA-2471
  previously determined antibiotic resistance: X
E. coli; strain E. coli CDC0017
  previously determined antibiotic resistance: X
E. coli; strain E. coli CDC0019
  previously determined antibiotic resistance: X

## CC(C)(O/N=C(\C(=O)N[C@@H]1C(=O)N2C(C(=O)[O-])=C(C[n+]3ccccc3)CS[C@H]12)c1csc(N)n1)C(=O)O [Ceftazidime]
K. oxytoca; strain K. oxytoca CDC0028
  previously determined antibiotic resistance: X
K. oxytoca; strain K. oxytoca CDC0071
  previously determined antibiotic resistance: X
K. oxytoca; strain K. oxytoca CDC0147
  previously determined antibiotic resistance: X
P. aeruginosa; [2]
  previously determined antibiotic resistance: X
P. aeruginosa; strain P. aeruginosa CDC0105
  previously determined antibiotic resistance: X
P. aeruginosa; strain P. aeruginosa CDC0111
  previously determined antibiotic resistance: X
P. aeruginosa; strain P. aeruginosa CDC0242
  previously determined antibiotic resistance: X
P. aeruginosa; strain P. aeruginosa CDC0251
  previously determined antibiotic resistance: X
P. aeruginosa; strain P. aeruginosa CDC0253
  previously determined antibiotic resistance: X
P. mirabilis; strain P. mirabilis ATCC 7002
  previously determined antibiotic resistance: X
P. mirabilis; strain P. mirabilis CDC0029
  previously determined antibiotic resistance: X
P. mirabilis; strain P. mirabilis CDC0059
  previously determined antibiotic resistance: X
P. mirabilis; strain P. mirabilis CDC0155
  previously determined antibiotic resistance: X
P. mirabilis; strain P. mirabilis CDC0156
  previously determined antibiotic resistance: X
P. mirabilis; strain P. mirabilis CDC0159
  previously determined antibiotic resistance: X
K. pneumoniae; [3]
  previously determined antibiotic resistance: X
K. pneumoniae; strain K. pneumoniae CDC0010
  previously determined antibiotic resistance: X
K. pneumoniae; strain K. pneumoniae CDC0016
  previously determined antibiotic resistance: X
K. pneumoniae; strain K. pneumoniae CDC0041
  previously determined antibiotic resistance: X
K. pneumoniae; strain K. pneumoniae CDC0107
  previously determined antibiotic resistance: X
K. pneumoniae; strain K. pneumoniae CDC0126
  previously determined antibiotic resistance: X
K. pneumoniae; strain K. pneumoniae CDC0160
  previously determined antibiotic resistance: X
E. coli; strain E. coli ATCC 25922
  previously determined antibiotic resistance: X
E. coli; strain E. coli CDC0020
  previously determined antibiotic resistance: X
E. coli; strain E. coli CDC0067
  previously determined antibiotic resistance: X
E. coli; strain E. coli CDC0084
  previously determined antibiotic resistance: X
E. coli; strain E. coli CDC0086
  previously determined antibiotic resistance: X
E. coli; strain E. coli CDC0350
  previously determined antibiotic resistance: X

## Cc1nnc(SCC2=C(C(=O)O)N3C(=O)[C@@H](NC(=O)Cn4cnnn4)[C@H]3SC2)s1 [Cefazolin]
[1]
  growth call at all antibiotic concentrations: growth
  sensitive/resistant call by MulitPath: resistant

## Trimethoprim/Sulfamethoxazole
K. oxytoca; strain K. oxytoca CDC0028
  previously determined antibiotic resistance: X
K. oxytoca; strain K. oxytoca CDC0071
  previously determined antibiotic resistance: X
K. oxytoca; strain K. oxytoca CDC0147
  previously determined antibiotic resistance: X
P. aeruginosa; [2]
  previously determined antibiotic resistance: IR
P. aeruginosa; strain P. aeruginosa CDC0105
  previously determined antibiotic resistance: IR
P. aeruginosa; strain P. aeruginosa CDC0111
  previously determined antibiotic resistance: IR
P. aeruginosa; strain P. aeruginosa CDC0232
  previously determined antibiotic resistance: IR
P. aeruginosa; strain P. aeruginosa CDC0242
  previously determined antibiotic resistance: IR
P. aeruginosa; strain P. aeruginosa CDC0247
  previously determined antibiotic resistance: IR
P. aeruginosa; strain P. aeruginosa CDC0251
  previously determined antibiotic resistance: IR
P. aeruginosa; strain P. aeruginosa CDC0253
  previously determined antibiotic resistance: IR
P. aeruginosa; strain P. aeruginosa CDC0259
  previously determined antibiotic resistance: IR
P. aeruginosa; strain P. aeruginosa CDC0261
  previously determined antibiotic resistance: IR
P. aeruginosa; strain P. aeruginosa CDC0262
  previously determined antibiotic resistance: IR
[1]
  growth call at all antibiotic concentrations: growth
  sensitive/resistant call by MulitPath: resistant
P. mirabilis; strain P. mirabilis ATCC 7002
  previously determined antibiotic resistance: X
P. mirabilis; strain P. mirabilis CDC0029
  previously determined antibiotic resistance: X
P. mirabilis; strain P. mirabilis CDC0059
  previously determined antibiotic resistance: X
P. mirabilis; strain P. mirabilis CDC0155
  previously determined antibiotic resistance: X
P. mirabilis; strain P. mirabilis CDC0156
  previously determined antibiotic resistance: X
P. mirabilis; strain P. mirabilis CDC0159
  previously determined antibiotic resistance: X
K. pneumoniae; [3]
  previously determined antibiotic resistance: X
K. pneumoniae; strain K. pneumoniae CDC0010
  previously determined antibiotic resistance: X
K. pneumoniae; strain K. pneumoniae CDC0016
  previously determined antibiotic resistance: X
K. pneumoniae; strain K. pneumoniae CDC0107
  previously determined antibiotic resistance: X
K. pneumoniae; strain K. pneumoniae CDC0117
  previously determined antibiotic resistance: X
K. pneumoniae; strain K. pneumoniae CDC0126
  previously determined antibiotic resistance: X
E. coli; strain E. coli ATCC 25922
  previously determined antibiotic resistance: X
E. coli; strain E. coli BAA-2469
  previously determined antibiotic resistance: X
E. coli; strain E. coli BAA-2471
  previously determined antibiotic resistance: X
E. coli; strain E. coli CDC0017
  previously determined antibiotic resistance: X
E. coli; strain E. coli CDC0019
  previously determined antibiotic resistance: X
E. coli; strain E. coli CDC0084
  previously determined antibiotic resistance: X

## C[C@@H](O)[C@H]1C(=O)N2C(C(=O)O)=C(S[C@@H]3CN[C@H](C(=O)N(C)C)C3)[C@H](C)[C@H]12 [Meropenem]
K. oxytoca; strain K. oxytoca CDC0028
  previously determined antibiotic resistance: X
K. oxytoca; strain K. oxytoca CDC0071
  previously determined antibiotic resistance: X
K. oxytoca; strain K. oxytoca CDC0147
  previously determined antibiotic resistance: X
P. aeruginosa; strain P. aeruginosa CDC0105
  previously determined antibiotic resistance: X
P. aeruginosa; strain P. aeruginosa CDC0111
  previously determined antibiotic resistance: X
P. aeruginosa; strain P. aeruginosa CDC0232
  previously determined antibiotic resistance: X
P. aeruginosa; strain P. aeruginosa CDC0242
  previously determined antibiotic resistance: X
P. aeruginosa; strain P. aeruginosa CDC0247
  previously determined antibiotic resistance: X
P. mirabilis; strain P. mirabilis ATCC 7002
  previously determined antibiotic resistance: X
P. mirabilis; strain P. mirabilis CDC0029
  previously determined antibiotic resistance: X
P. mirabilis; strain P. mirabilis CDC0059
  previously determined antibiotic resistance: X
P. mirabilis; strain P. mirabilis CDC0155
  previously determined antibiotic resistance: X
P. mirabilis; strain P. mirabilis CDC0156
  previously determined antibiotic resistance: X
P. mirabilis; strain P. mirabilis CDC0159
  previously determined antibiotic resistance: X
K. pneumoniae; [3]
  previously determined antibiotic resistance: X
K. pneumoniae; strain K. pneumoniae CDC0010
  previously determined antibiotic resistance: X
K. pneumoniae; strain K. pneumoniae CDC0016
  previously determined antibiotic resistance: X
K. pneumoniae; strain K. pneumoniae CDC0034
  previously determined antibiotic resistance: X
K. pneumoniae; strain K. pneumoniae CDC0043
  previously determined antibiotic resistance: X
K. pneumoniae; strain K. pneumoniae CDC0076
  previously determined antibiotic resistance: X
K. pneumoniae; strain K. pneumoniae CDC0080
  previously determined antibiotic resistance: X
E. coli; strain E. coli ATCC 25922
  previously determined antibiotic resistance: X
E. coli; strain E. coli CDC0001
  previously determined antibiotic resistance: X
E. coli; strain E. coli CDC0006
  previously determined antibiotic resistance: X
E. coli; strain E. coli CDC0020
  previously determined antibiotic resistance: X
E. coli; strain E. coli CDC0085
  previously determined antibiotic resistance: X
E. coli; strain E. coli CDC0114
  previously determined antibiotic resistance: X

Reference: patent publication US12480944B2, “Detection and analysis of cells” (First Light Diagnostics, Inc., priority 2018, dated 2025)
